Read-outs that look alike come from different tables or passages of the source.
Assays:
K-ras G12D = K-ras G12D (Homo sapiens, UniProt P01116, G12D); assay: G-LISA Ras activation assay, 293H cells transfected with G12D mutant; format: cell-based; conditions: 1 hour treatment
Method: (§1) 293H cells were seeded in 6-wells at 0.6×10^6 cells per well and transfected next day with 5 μg of Ras wild-type, or G12C, G12D or G12V mutant DNA plasmid vector using transfection reagent Lipofectamine 3000. Next day cells were treated with 3.125-50 μM of Ras compounds for 1 hour. Wild-type transfected cells were subsequently treated with 100 ng/ml EGF for 2 minutes. Cells were washed once in ice-cold PBS, lysed in complete lysis buffer on ice, and processed by G-LISA according to Cytoskeleton protocol.
(§2) In-cell selectivity of the compounds presented herein against a specific K-ras mutant form can also be tested as shown in the following exemplary experiment. 293H cells were seeded in 6-wells and transfected next day with 5 μg of Ras wild-type, or G12C, G12D or G12V mutant DNA plasmid vector. Next day cells were treated with 3.125-50 μM of Ras compounds for 1 hour. Wild-type transfected cells were subsequently treated with 100 ng/ml EGF for 2 minutes. Cells were washed once in ice-cold PBS, lysed in complete lysis buffer on ice, and processed by G-LISA according to Cytoskeleton protocol. FIG. 1 depicts exemplary results.
as §1, with “In still further experiments, the inventors tested selected compounds in a G-LISA assay to compare IC50 values for wild-type and various mutant K-Ras (G12D, G12V) using the following general protocol: 293H” for “293H”

K-ras G12V (GTP) = K-ras G12V (GTP) (Homo sapiens, UniProt P01116, G12V); assay: SPR assay (surface plasmon resonance); format: binding; conditions: 25° C., 8% DMSO
Method: Selected compounds were also tested for selective binding to wild type and mutant forms of K-ras in the active and non-active state using surface plasmon resonance, and exemplary results are shown in Table 4.
The running buffer in all surface plasmon resonance experiments was 10 mM HEPES pH 7.4, 150 mM NaCl, 0.1% (v/v) Tween-20, 1 mM MgCl2, 8% DMSO. Experiments were carried out on the SensiQ Pioneer optical biosensor. The flow rate was set at 50 μL/min and the temperature was 25° C. kRAS protein was immobilized to the Nickel-NTA charged surface of the SensiQ HisCap chip (sensiqtech.com) giving a yield of 4000 RU. Small molecules were prepared in 100% DMSO and further diluted to 8% DMSO in running buffer. The small molecules were injected using the Taylor diffusion gradient injection mode (OneStep®, see e.g., Evaluation of Taylor dispersion injections: Determining kinetic/affinity interaction constants and diffusion coefficients in label-free biosensing, John G. Quinn, Analytical Biochemistry (2011)). Buffer blanks were injected for double referencing purposes. Data processing and model fitting were performed using Qdat.

[1] = tested on: Akt phosphorylation in Panc10.05 (G12D) cells; assay: In-Cell Western Akt phosphorylation; format: cell-based; conditions: EC50, one hour treatment; read-out: In-Cell Western Akt phosporylation Panc10.05 (G12D)
Method: (§3) In-cell phosphorylation assays for Erk and Akt were performed on various of the compounds and exemplary results are shown in Table 3 below using […] and Panc10.05 cell lines for G12D K-ras mutants.
(§4) Cells are seeded in complete medium into black sided, clear-bottom 384-well microplates at 3000 cells/[…]/well. Plates are returned to 37° C. CO2 incubator for 18 hr. Drug is made as 200× in DMSO and diluted into medium to 10×. To each well is added 4 ul 10× test article or controls, and plates are returned to the incubator. Final assay DMSO concentration is 0.5%. After one hour, cells are fixed in formaldehyde, rinsed & permeabilized with triton X-100, and blocked with BSA/Goat serum blocking solution. Primary phospho-Akt and phospho-ERK antibodies are added and plates are incubated overnight at 4° C. Plates are rinsed with Tween-20 wash buffer and secondary antibody (Goat anti-rabbit, Thermofisher) is added. After 2 hours, plates are rinsed in Tween-20 wash buffer, and then PBS. Plates are imaged on the Celigo (Nexcelom) and cellular fluorescence is quantitated. Full inhibition of phospho-Akt is achieved with 1 uM BEZ235 (Sellekchem), while full inhibition of phospho-ERK is achieved with 1 uM MEK Inhibitor II Calbiochem). EC50 values are calculated using Graphpad Prism.

[2] = tested on: Akt phosphorylation in Panc1 (G12D) cells; assay: In-Cell Western Akt phosphorylation; format: cell-based; conditions: EC50, one hour treatment; read-out: In-Cell Western Akt phosporylation Panc1 (G12D)
Method: as §3, §4

[3] = tested on: Erk phosphorylation in Panc10.05 (G12D) cells; assay: In-Cell Western Erk phosphorylation; format: cell-based; conditions: EC50, one hour treatment; read-out: In-Cell Western Erk phosporylation Panc10.05 (G12D)
Method: as §3, §4

[4] = tested on: Erk phosphorylation in Panc1 (G12D) cells; assay: In-Cell Western Erk phosphorylation; format: cell-based; conditions: EC50, one hour treatment; read-out: In-Cell Western Erk phosporylation Panc1 (G12D)
Method: as §3, §4

Panc10.05 (G12D) cells = assay: 72 hr cell viability (CellTiterBlue); format: cell-based; conditions: GI50, 72 hr
Method: (§5) Viability assays were performed on exemplary compounds and Table 2 below lists exemplary results for selected compounds tested on wild type (Ishikawa) and various K-ras mutants (Panc1-G12D; Panc10.05-G12D; HCT116-G13D).
(§6) Cells are counted and seeded at 1000 cells/36 ul medium/well into 384-well microplates. Cells are returned to 37° C. CO2 incubator for 18 hr. Drug is made as 200× in DMSO and diluted into medium to 10×. To each well is added 4 ul 10× drug, and plates are returned to the incubator. Final assay DMSO concentration is 0.5%. After 72 hr, 8 ul CellTiterBlue (Promega) is added to each well. After 3 hr, fluorescence (Ex550/Em590) is determined on the Victor Plate Reader (Perkin Elmer). Assay range is determined by DMSO control (100% viability) and 100 uM tamoxifen (0% viability). GI50 values are calculated using Graphpad Prism.

Panc1 (G12D) cells = assay: 72 hr cell viability (CellTiterBlue); format: cell-based; conditions: GI50, 72 hr
Method: as §5, §6

[5] = tested on: Ishikawa (K-Ras wild-type) cells; assay: 72 hr cell viability (CellTiterBlue); format: cell-based; conditions: GI50, 72 hr
Method: as §5, §6

HCT116 (G13D) cells = assay: 72 hr cell viability (CellTiterBlue); format: cell-based; conditions: GI50, 72 hr
Method: as §5, §6

K-ras G12V = K-ras G12V (Homo sapiens, UniProt P01116, G12V); assay: G-LISA Ras activation assay, 293H cells transfected with G12V mutant; format: cell-based; conditions: 1 hour treatment
Method: as §1, §2
as §1, with “In still further experiments, the inventors tested selected compounds in a G-LISA assay to compare IC50 values for wild-type and various mutant K-Ras (G12D, G12V) using the following general protocol: 293H” for “293H”

K-Ras wild-type = K-Ras wild-type (Homo sapiens, UniProt P01116); assay: G-LISA Ras activation assay, 293H cells transfected with Ras wild-type, EGF-stimulated; format: cell-based; conditions: 1 hour treatment, 100 ng/ml EGF
Method: as §1, §2
as §1, with “In still further experiments, the inventors tested selected compounds in a G-LISA assay to compare IC50 values for wild-type and various mutant K-Ras (G12D, G12V) using the following general protocol: 293H” for “293H”

[6] = Table 1, G-LISA, 293H transfected, read-out: IC50 (μM) G12D
[7] = Table 5, IC50, 293H transfected, read-out: G-LISA (G12D)
[8] = Table 1, G-LISA, 293H transfected, read-out: IC50 (μM) G12V
[9] = Table 5, IC50, 293H transfected, read-out: G-LISA (G12V)

Compound	IC50 (K-ras G12D; [6])	IC50 (K-ras G12D; [7])	EC50 [1]	EC50 [2]	EC50 [3]	EC50 [4]	IC50 (Panc1 (G12D) cells)	IC50 [5]	also measured
Cc1nc(C)c(C(=O)Nc2nc(-c3ccc4c(c3)CCC(=O)N4C)cs2)s1 [Compound 4687]	19 µM	19 µM							Kd (K-ras G12V (GTP)): 6.6 µM; SPR Assay G12V (GTP) Rmax (K-ras G12V (GTP)): Rmax = 72.6 ± 0.1
Cc1nc(C)c(CNc2nc(-c3ccc4c(c3)CCC(=O)N4)cs2)s1 [Compound 4856]	> 25 µM		> 25 µM	> 25 µM	19 µM	7 µM	≥ 25 µM		IC50 (Panc10.05 (G12D) cells): ≥ 25 µM
O=C1CCc2cc(-c3csc(NC(=O)c4ccccc4)n3)ccc2N1 [Compound 4825]	> 25 µM	> 25 µM							
CCc1sc(NC(=O)c2sc(C)nc2C)nc1-c1ccc2c(c1)CCC(=O)N2 [Compound 4803]	> 25 µM	71 µM							
COCCOc1nc(C)c(C(=O)Nc2nc(-c3ccc4c(c3)CCC(=O)N4)cs2)s1 [Compound 4896]			12 µM	14 µM	8 µM	8 µM	≥ 25 µM	19 µM	IC50 (Panc10.05 (G12D) cells): ≥ 25 µM; IC50 (HCT116 (G13D) cells): 22 µM
Cc1nc(-c2ccccc2)sc1C(=O)Nc1nc(-c2ccc3c(c2)CCC(=O)N3)cs1 [Compound 4878]	19 µM	19 µM	> 25 µM	26 µM	13 µM	19 µM	7 µM	5 µM	IC50 (K-ras G12V; [8]): > 25 µM; IC50 (K-ras G12V; [9]): > 25 µM
COCc1nc(C)c(C(=O)Nc2nc(-c3ccc4c(c3)CCC(=O)N4)cs2)s1 [Compound 4876]			> 25 µM	20 µM	17 µM	9 µM	13 µM	3 µM	
O=C1CCc2cc(-c3csc(NC(=O)c4cnc(-c5ccccc5)s4)n3)ccc2N1 [Compound 4684]	> 25 µM	> 25 µM							
Cc1ccccc1C(=O)Nc1nc(-c2ccc3c(c2)CCC(=O)N3)cs1 [Compound 4874]	16 µM	16 µM	> 25 µM	25 µM	14 µM	> 25 µM	12 µM	3 µM	
O=C1CCc2cc(-c3csc(NCc4ccccc4)n3)ccc2N1 [Compound 4824]	> 25 µM	> 25 µM							
O=C1CCc2cc(-c3csc(NC(=O)c4scnc4C4CC4)n3)ccc2N1 [Compound 4735]	> 25 µM	> 25 µM							Kd (K-ras G12V (GTP)): 43 µM; SPR Assay G12V (GTP) Rmax (K-ras G12V (GTP)): Rmax = 203 ± 3
Cc1nc(C2CC2)sc1C(=O)Nc1nc(-c2ccc3c(c2)CCC(=O)N3)cs1 [Compound 4877]	6 µM	6 µM	17 µM	7 µM	3 µM	3 µM	5 µM	1.2 µM	IC50 (K-ras G12V; [8]): 9 µM; IC50 (K-ras G12V; [9]): 9 µM; IC50 (K-Ras wild-type; Table 1, G-LISA, 293H transfected, read-out: IC50 (μM) Wild-type): 16 µM; IC50 (K-Ras wild-type; Table 5, IC50, 293H transfected, read-out: G-LISA (wild type)): 16 µM

Source: patent US10487078B2, “Compositions and methods of targeting mutant K-RAS” (NantBio, Inc., priority 2015, dated 2019)
